Data published in PubChem BioAssay AID2060512 (Molecular Pharmacology Branch, DTP, NCI, 2025).

Test system: 186277-243-T-J2-PDC complex spheroid viability
Assay: Anticancer human tumor 186277-243-T-J2-PDC patient-derived colon adenocarcinoma cell line growth inhibition [GQUAD]
Details: for IC50: curve of first compound; for viability, T/C: stronger effect = lower value
From the text: DNA G-quadruplex Stabilizer Agents in Combinations in Complex Spheroids
A high-throughput screen of multi-cell type tumor spheroids was designed to identify active combinations of DNA G-quadruplex stabilizer agents and targeted small molecules. Complex spheroids include a stromal component modeled by human endothelial cells (HUVEC) and fibroblasts modeled by human mesenchymal stem cells (MSCs). The concentration ranges selected for each drug and investigational agent were based upon clinically achievable concentrations if the clinical Cmax of the agent was known.
Compounds. The drugs and investigational agents: pidnarulex (CX-5461; NSC782164), APTO-253 (NSC789042), BRACO-19 (NSC847499), peposertib (NSC802822), ceralasertib (NSC780249), elimusertib (NSC800525), camonsertib (NSC841442), AZD-1390 (NSC803789), olaparib (NSC753686), talazoparib (NSC767125), ART-558 (NSC835418), sotorasib (NSC818433), MRTX-1133 (NSC836407), SN-38 (NSC673596), topotecan (NSC609699), etoposide (NSC141540), doxorubicin (NSC123127), gemcitabine (NSC613327), 5-fluorouracil (NSC19893), paclitaxel (NSC125973), vemurafenib (NSC761431), panobinostat (NSC761190), R-306465 (JNJ-16241199; NSC773264), adavosertib (NSC754352), TP-3654 (NSC805149), carboplatin (NSC241240), KSQ-4279 (NSC840948), and staurosporine (NSC755774) were obtained from the National Cancer Institute (NCI) Developmental Therapeutics Program Chemical Repository (34). The FDA-approved anticancer drug set is available from the NCI Developmental Therapeutics Program. […] The stock solutions were prepared in dimethyl sulfoxide (DMSO, Sigma-Aldrich, St. Louis, MO, cat. D2650) at 800-fold the tested concentration and stored at -70 degrees C prior to their use. All drugs and investigational agents were tested over a range starting from a high concentration at or near the clinical Cmax and decreasing in half-log increments. If the clinical Cmax for an agent had not been determined, the highest concentration tested was 10 microM.
2.3 Cell Culture. All cells were maintained in an incubator at 37 degrees C and 5% CO2 with 95% humidity. The PDC lines were cultured according to standard operating procedures established by the NCI PDMR. All PDCs were thawed and cultured in Matrigel-coated flasks prepared with a working solution of 1X Ham's F-12 nutrient mix, without supplementation (Invitrogen, cat. 11765054), 100 U/mL penicillin-streptomycin (Invitrogen, cat. 15140122), and 2.5% Matrigel (Corning Inc., cat. 354248) for the first three passages. The 857933-349-R-J2-PDC line was cultured in 6C/Colon 1B media, which includes advanced DMEM/F-12 (Thermo Fisher Scientific, cat. 12634028), 10 mM HEPES (Thermo Fisher Scientific, cat. 15630080), 1X GlutaMAX supplement (Thermo Fisher Scientific, cat. 35050061), 0.1 mg/mL primocin (InvivoGen, cat. ant-pm-2), 10% defined fetal bovine serum, heat inactivated (HyClone Laboratories Inc., cat. SH30070.03HI), 50% L-WRN conditioned media (ATCC, cat. CRL-3276), 1.25 mM N-Acetyl-L-cysteine (Sigma-Aldrich, cat. A9165), 10 mM nicotinamide (Sigma-Aldrich, cat. N0636), 1X B-27 supplement (Thermo Fisher Scientific, cat. 17504044), 1X N-2 supplement (Thermo Fisher Scientific, cat. 17502048), 10 microM Y-27632 dihydrochloride (Tocris Bioscience, cat. 1254), and 50 ng/mL human EGF recombinant protein (Thermo Fisher Scientific, cat. PHG0311). The 485176-168-R4-J1-PDC line was cultured in Panc media, which includes all 6C/Colon 1B media components plus 100 ng/mL human FGF-10 (Thermo Fisher Scientific, cat. 100-26), 500 nM SB-431542 (Selleckchem, cat. S1067), and gastrin (Tocris, cat. 3006).
[…]

[1] = second compound 0.0316 µM, first compound 0.0316 µM
[2] = second compound 0.0316 µM, first compound 0.1 µM
[3] = second compound 0.0316 µM, first compound 0.316 µM
[4] = second compound 0.0316 µM, first compound 1 µM
[5] = second compound 0.0316 µM, first compound 3.16 µM
[6] = second compound 0.0316 µM, first compound 10 µM
[7] = second compound 0.1 µM, first compound 0.0316 µM
[8] = second compound 0.1 µM, first compound 0.1 µM
[9] = second compound 0.1 µM, first compound 0.316 µM
[10] = second compound 0.1 µM, first compound 1 µM
[11] = second compound 0.1 µM, first compound 3.16 µM
[12] = second compound 0.1 µM, first compound 10 µM
[13] = second compound 0.316 µM, first compound 0.0316 µM
[14] = second compound 0.316 µM, first compound 0.1 µM
[15] = second compound 0.316 µM, first compound 0.316 µM
[16] = second compound 0.316 µM, first compound 1 µM
[17] = second compound 0.316 µM, first compound 3.16 µM
[18] = second compound 0.316 µM, first compound 10 µM
[19] = second compound 1 µM, first compound 0.0316 µM
[20] = second compound 1 µM, first compound 0.1 µM
[21] = second compound 1 µM, first compound 0.316 µM
[22] = second compound 1 µM, first compound 1 µM
[23] = second compound 1 µM, first compound 3.16 µM
[24] = second compound 1 µM, first compound 10 µM
[25] = second compound 3.16 µM, first compound 0.0316 µM
[26] = second compound 3.16 µM, first compound 0.1 µM
[27] = second compound 3.16 µM, first compound 0.316 µM
[28] = second compound 3.16 µM, first compound 1 µM
[29] = second compound 3.16 µM, first compound 3.16 µM
[30] = second compound 3.16 µM, first compound 10 µM
[31] = second compound 10 µM, first compound 0.0316 µM
[32] = second compound 10 µM, first compound 0.1 µM
[33] = second compound 10 µM, first compound 0.316 µM
[34] = second compound 10 µM, first compound 1 µM
[35] = second compound 10 µM, first compound 3.16 µM
[36] = second compound 10 µM, first compound 10 µM
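Also: spheroids exposed to drugs for 7 days.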
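For viability, T/C in this document: 100% = DMSO vehicle control viability.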

In the case of O=C(c1cc(Cc2n[nH]c(=O)c3ccccc23)ccc1F)N1CCN(C(=O)C2CC2)CC1 + Cc1cnc(CNC(=O)c2c(=O)c3ccc(N4CCCN(C)CC4)nc3n3c2sc2ccccc23)cn1, the IC50 (second compound 0.0316 µM) is reported as greater than 10 µM, the IC50 (second compound 0.1 µM) is reported as 5.01 µM and the IC50 (second compound 0.316 µM) is reported as greater than 10 µM. The IC50 (second compound 1 µM) was less than 0.0316 µM, the IC50 (second compound 3.16 µM) was less than 0.0316 µM and the IC50 (second compound 10 µM) was less than 0.0316 µM. It also gave a viability, T/C [1] of 99.9%, a viability, T/C [2] of 78.8% and a viability, T/C [3] of 83.2%. It also gave a viability, T/C [4] of 83.6%, a viability, T/C [5] of 60.9% and a viability, T/C [6] of 53%. It also gave a viability, T/C [7] of 80.7%, a viability, T/C [8] of 62.8% and a viability, T/C [9] of 62.7%. For the same compound, the viability, T/C [10] was 60.7%, the viability, T/C [11] was 53% and the viability, T/C [12] was 45.9%. The viability, T/C [13] was 64.6%, the viability, T/C [14] was 56.8% and the viability, T/C [15] was 64.6%. It also gave a viability, T/C [16] of 62.9%, a viability, T/C [17] of 50.8% and a viability, T/C [18] of 48.4%. It also gave a viability, T/C [19] of 46.3%, a viability, T/C [20] of 48.4% and a viability, T/C [21] of 43.5%. For the same compound, the viability, T/C [22] was 47.9%, the viability, T/C [23] was 50% and the viability, T/C [24] was 49%. It also gave a viability, T/C [25] of 44.2%, a viability, T/C [26] of 39.2% and a viability, T/C [27] of 38.3%. For the same compound, the viability, T/C [28] was 38.2%, the viability, T/C [29] was 43.5% and the viability, T/C [30] was 38.9%. For the same compound, the viability, T/C [31] was 33.1%, the viability, T/C [32] was 42.3% and the viability, T/C [33] was 34.7%. It also gave a viability, T/C [34] of 43.8%, a viability, T/C [35] of 49.5% and a viability, T/C [36] of 38.9%.

Compound C=CCn1c(=O)c2cnc(Nc3ccc(N4CCN(C)CC4)cc3)nc2n1-c1cccc(C(C)(C)O)n1 + CN(C)c1ccc(Nc2c3ccc(NC(=O)CCN4CCCC4)cc3nc3cc(NC(=O)CCN4CCCC4)ccc23)cc1 has an IC50 (second compound 0.0316 µM) of 0.174 µM, an IC50 (second compound 0.1 µM) of 0.175 µM and an IC50 (second compound 0.316 µM) of 0.2 µM. For the same compound, the IC50 (second compound 1 µM) was 0.189 µM, the IC50 (second compound 3.16 µM) was 0.179 µM and the IC50 (second compound 10 µM) was 0.184 µM. It also gave a viability, T/C [1] of 107%, a viability, T/C [2] of 81.7% and a viability, T/C [3] of 15.5%. For the same compound, the viability, T/C [4] was 10.1%, the viability, T/C [5] was 9.78% and the viability, T/C [6] was 13%. For the same compound, the viability, T/C [7] was 106%, the viability, T/C [8] was 83.8% and the viability, T/C [9] was 14.5%. For the same compound, the viability, T/C [10] was 8.74%, the viability, T/C [11] was 8.46% and the viability, T/C [12] was 11.9%. The viability, T/C [13] was 96.8%, the viability, T/C [14] was 94.4% and the viability, T/C [15] was 20.9%. For the same compound, the viability, T/C [16] was 8.7%, the viability, T/C [17] was 9.7% and the viability, T/C [18] was 12.2%. The viability, T/C [19] was 93.1%, the viability, T/C [20] was 99.1% and the viability, T/C [21] was 13%. It also gave a viability, T/C [22] of 9.53%, a viability, T/C [23] of 9.39% and a viability, T/C [24] of 12.5%. For the same compound, the viability, T/C [25] was 110%, the viability, T/C [26] was 85.3% and the viability, T/C [27] was 15.4%. For the same compound, the viability, T/C [28] was 10.1%, the viability, T/C [29] was 9.74% and the viability, T/C [30] was 14.9%. For the same compound, the viability, T/C [31] was 101%, the viability, T/C [32] was 88.6% and the viability, T/C [33] was 16%. The viability, T/C [34] was 10.1%, the viability, T/C [35] was 8.2% and the viability, T/C [36] was 12.7%.
